Legend:
[1] = molecular target: Trypsin (Homo sapiens, UniProt P07477+P07478+P35030); assay: Inhibition of human trypsin using hilyte fuor 488-labeled casein as substrate after 30 mins by green protease fluorometric assay; assay type: protein assay
[2] = Inhibition of Hepatitis C virus NS3/4A protease using Ac-Asp-Glu-Dap (QXLTM520)-Glu-Glu-Abu-COO-Ala-Ser-Cys(5-FAMsp)-NH2 as substrate after 30 mins by fluorometric assay; design: species or system Hepacivirus hominis

Compound: C[C@]1(O)CC[C@@H]2C(C(=O)O)=CO[C@@H](O[C@@H]3O[C@H](COC(=O)/C=C/c4ccccc4)[C@@H](O)[C@H](O)[C@H]3O)[C@@H]21
- IC50 [1]: > 200 µM
- IC50 [2]: 100 µM

Compound: C[C@]1(O[C@@H]2O[C@H](COC(=O)/C=C/c3ccccc3)[C@@H](O)[C@H](O)[C@H]2O)CC[C@@H]2C(C(=O)O)=CO[C@@H](O[C@@H]3O[C@H](COC(=O)/C=C/c4ccccc4)[C@@H](O)[C@H](O)[C@H]3O)[C@@H]21
- IC50 [1]: > 200 µM
- IC50 [2]: 125 µM

Compound: C/C(=C\CO)CC/C=C(\C)C(=O)OC/C=C(\C)CC/C=C(\C)C(=O)O
- IC50 [1]: > 200 µM
- IC50 [2]: 126 µM

Compound: CC(=O)OC/C=C(\C)CC/C=C(\C)C(=O)OC/C=C(\C)CC/C=C(\C)C(=O)O
- IC50 [2]: > 200 µM

Compound: C[C@]1(OC(=O)/C=C/c2ccccc2)CC[C@@H]2C(C(=O)O)=CO[C@@H](O[C@@H]3O[C@H](CO)[C@@H](O)[C@H](O)[C@H]3O)[C@@H]21
- IC50 [1]: > 200 µM
- IC50 [2]: 109 µM

Source: ChEMBL document CHEMBL1781925, “HCV-NS3/4A protease inhibitory iridoid glucosides and dimeric foliamenthoic acid derivatives from Anarrhinum orientale” (J Nat Prod, 2011)
